According to patent US8778966B2, “Quinolinone derivatives as PARP and tank inhibitors” (Janssen Pharmaceutica, NV, priority 2007, dated 2014):

Experiments:
[1] = system: PC3 cells; experiment: EB1 Comet (microtubule disruption) assay; format: cell-based, human; details: Homo sapiens, PC-3, 1 h, 1 hour treatment, read-out: EB1 pLAC (converted)
How it was run: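 Readout is loss of Eb1 plus-end foci, scored by immunofluorescence microscopy, in PC3 cells after 1 h compound treatment at 37 °C with 0.6% final DMSO. LAC is defined as the lowest concentration leaving at least 50% of cells without Eb1 foci.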

[2] = system: HCT116 cells; experiment: Mitotic arrest assay on HCT116 cells (phospho-histone H3 Ser10); format: cell-based, human; details: Homo sapiens, HCT-116, HCT116 cells; lowest active dose; read-out: Mitotic arrest HCT116 LAD (converted)
How it was run: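 Read-out is imaging of phospho-histone H3 Ser10 (Alexa Fluor 488) with Hoechst nuclear counting, after 6 h compound exposure at 37 °C, DMSO ≤0.1%. LAD is the lowest dose at which the blank-corrected value over SD exceeds 5; triplicates, low-count wells excluded.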

Row | SMILES | minimal effective concentration [1] [µM] | minimal effective concentration [2] [µM]
1 | CCc1cc2ccc(C(C)(C#N)Cc3cccc(C#N)c3)cc2[nH]c1=O (centres unmarked) [Compound 51] | 0.316 | 0.1
2 | CCc1cc2ccc(C(C)(C#N)Cc3cccc(CN(C)C)c3)cc2[nH]c1=O (centres unmarked) [Compound 7] | 3.16 | 3.16
3 | CCc1cc2ccc(C(C)(C#N)Cc3ccccc3C(F)(F)F)cc2[nH]c1=O (centres unmarked) [Compound 103] | 0.316 | 0.316
4 | Cc1cc2ccc(C(C)(C#N)Cc3cccc4cccnc34)cc2[nH]c1=O (centres unmarked) [Compound 74] | 3.16 | 0.316
5 | CCc1cc2ccc([C@](C)(C#N)Cc3ccccc3)cc2[nH]c1=O (single isomer, unassigned) [Compound 45] | > 10 | > 10
6 | Cc1cc2ccc(C(C)(C#N)Cc3ccc(Cl)s3)cc2[nH]c1=O (centres unmarked) [Compound 72] | 0.316 | 0.1
7 | CCc1cc2ccc(C(C)(C#N)Cc3nc4ccccc4o3)cc2[nH]c1=O (centres unmarked) [Compound 85] | 0.316 | 0.316
8 | CCc1cc2ccc(C(C)(C#N)Cc3csc(C)n3)cc2[nH]c1=O (centres unmarked) [Compound 86] | 3.16 | 1
9 | CCc1cc2ccc(C(C)(C#N)CCOc3ccc([N+](=O)[O-])cc3)cc2[nH]c1=O (centres unmarked) [Compound 54] | 0.316 | 0.1
10 | CCc1cc2ccc(C(C)(C#N)Cc3cccc(CO)c3)cc2[nH]c1=O (centres unmarked) [Compound 9] | 1 | 0.316
